In paper PMC6628362, “A New Strategy for Glioblastoma Treatment: In Vitro and In Vivo Preclinical Characterization of Si306, a Pyrazolo[3,4-d]Pyrimidine Dual Src/P-Glycoprotein Inhibitor” (Cancers, 2019):

Tests used:
U87-TxR = test: MTT cell growth inhibition, MDR U87-TxR; type: cell-based, Human; conditions: 72 h, n = 3
Procedure: (§1) Human GBM cell lines U87 and LN-229 were purchased from the American Type Culture Collection, Rockville, MD, USA. U87-TxR cells were selected from U87 cells by continuous exposure to increasing concentrations of PTX [76]. LN-299, U87 and U87-TxR cells were grown in Minimum Essential Medium with 10% fetal bovine serum, 2 mM L-glutamine and 5000 U/mL penicillin, 5 mg/mL streptomycin solution. Cell lines were maintained at 37 °C in a humidified 5% CO2 atmosphere. They were sub-cultured at 72 h intervals using 0.25% trypsin/EDTA and 16,000 cells/cm^2 were seeded into a fresh medium.
(§2) MTT assay was used to assess the viability of U87 and U87-TxR cells (AppliChem GmbH, Taufkirchen, Germany). After reaching the confluence in 25 cm^2 tissue flasks, U87 and U87-TxR cells were trypsinized. Cells were seeded at the optimal density determined in initial experiments: 4000 cell/well into flat-bottomed 96-well tissue culture plates. Following the overnight incubation, cells were treated with Si306, pro-Si306 and dasatinib (1–25 µM) for 72 h. In addition, the combined effects of Si306 and pro-Si306 with PTX were evaluated in MDR GBM cells. To that end, two concentrations of Si306 and pro-Si306 (0.2 μM and 0.5 μM) were combined with increasing concentrations of PTX (0.1–2 μM) in simultaneous treatment. The sensitization of U87-TxR cells to PTX was studied after 72 h. Briefly, MTT was added to each well in a final concentration of 0.2 mg/mL for 4 h to induce the formation of the formazan in cells with intact/viable mitochondria. Then, produced formazan was dissolved in DMSO, and the absorbance was measured at 540 nm on a microplate reader (LKB 5060-006 Micro Plate Reader, Vienna, Austria). IC50 values were calculated by nonlinear regression analysis using GraphPad Prism 6.0 for Windows (GraphPad Software, La Jolla, CA, USA).

[1] = Acute toxicity study in mice (single i.v. dose); type: in vivo, BALB/c mice
Procedure: Male BALB/c mice (20 ± 2) g, supplied by Harlan Italy S.r.l., San Pietro al Natisone, Udine, Italy, were acclimated at 25 °C and 55% of humidity under natural light/dark conditions for 1 week before the proposed experiments. Animal welfare was routinely checked by veterinarians of the Service for Animal Welfare and all efforts were made to minimize suffering.
The study design includes three groups of five mice each. All mice were injected with compound through the tail vein in a single systemic dose (0.05 mL per dose). The test compound was solubilized in PBS/25% DMSO. The first group was treated with dose levels of 50 mg/kg; the second received a high-dose level of 100 mg/kg, whereas the third was inoculated with the only vehicle as the control. All mice were monitored for survival and the presence of any drug-related adverse effect (local signs of inflammation, weight loss, diarrhea, and behavioral alterations) throughout the experimental period. Mice were sacrificed 4 days after treatment, and liver, kidney, and brain tissue specimens were aseptically removed, fixed in 4% formaldehyde solution, and processed for paraffin embedding. Histopathological changes in tissue specimens were evaluated in 10 randomly selected tissue sections from each organ for all the samples. Sections cut at 2 μm were stained with hematoxylin and eosin (H&E) and analyzed by a pathologist with an optical microscope (Leica, Wetzlar, Germany).

U87-TxR cells = test: Reversal of paclitaxel resistance, MTT combination treatment; type: cell-based, Human; conditions: 0.2 µM of the compound, 72 h
Procedure: as §2

U87 = test: MTT cell growth inhibition, U87; type: cell-based, Human; conditions: 72 h, n = 3
Procedure: as §1, §2

## ClC(Cn1ncc2c(Nc3cccc(Br)c3)nc(SCCN3CCOCC3)nc21)c1ccccc1 (stereo not shown) [Si306]
U87-TxR
  IC50: 4.78 ± 0.322 µM
U87-TxR; Homo sapiens, U87-TxR
  IC50: 4.8 µM
[1]; 50 and 100 mg/kg i.v., 4 days after treatment, H&E
  microscopic alterations in liver, kidney and central nervous system: No microscopic alterations
[1]; limit test dose 100 mg/kg, i.v., four days observation
  treatment-related mortality: did not produce treatment-related mortality
[1]; male, BALB/c, mouse, in vivo, iv, single dose, mice
  LD50 at 4 days: > 100 mg/kg
[1]; up to 100 mg/kg i.v., four days observation
  behavior (apathy, hyperactivity, vomiting, diarrhea, morbidity): no significant changes occurred in the behavior
[1]; up to 100 mg/kg i.v., recorded daily
  body weights: no significant changes
U87-TxR cells
  Relative Reversal of PTX resistance: 1.16 ^ns
U87
  IC50: 3.08 ± 0.26 µM
U87; Homo sapiens, U-87 MG
  IC50: ~3 µM
